Test results taken from ChEMBL document CHEMBL5518230, “Identification of a Novel Selective CDK9 Inhibitor for the Treatment of CRC: Design, Synthesis, and Biological Activity Evaluation” (J Med Chem, 2024).
Calls of active or inactive are those of the source. No cut-off for these calls is given here.

Key:
[1] = Apparent volume of distribution in Sprague-Dawley rat at 2 mg/kg,iv administration measured for 0.25 to 24 hrs by LC-MS/MS analysis; type: ADME, organism-based; details: in vivo, time 0.25-24 hrs, read-out: Vz
[2] = tested on: HCT-116; experiment: Induction of apoptosis in human HCT-116 cells assessed as downregulation of XIAP mRNA expression at 25 to 400 nM incubated for 48 hrs by qRT-PCR analysis; type: functional, cell-based; details: dose 25-400 nM
[3] = Intrinsic clearance in human liver microsomes at 100 uM measured upto 60 mins in presence of NADPH by LC-MS/MS analysis; type: ADME, Microsome; details: 1 h
[4] = Toxicity in BALB/c mouse xenografted with human HCT-116 cells assessed as lung morphological change at 25 mg/kg,po administrated once daily for 3 weeks by hematoxylin and eosin staining based microscopic analysis; type: organism-based; details: in vivo, 504 h
[5] = tested on: HCT-116; experiment: Growth inhibition of human HCT-116 cells incubated for 48 hrs by CCK-8 assay; type: functional
[6] = biological target: TGF-beta receptor type-2 (Homo sapiens) (UniProt P37173); experiment: Inhibition of human TGFbetaR2 at 100 nM by kinase profiling assay relative to control
[7] = AUC (0 to infinity) in Sprague-Dawley rat at 10 mg/kg,po administration measured for 0.25 to 24 hrs by LC-MS/MS analysis; type: ADME, organism-based; details: in vivo, time 0.25-24 hrs
[8] = tested on: HCT-116; experiment: Induction of apoptosis in human HCT-116 cells assessed as downregulation of cleaved caspase-3 expression at 25 to 400 nM incubated for 48 hrs by Western blotting analysis; type: functional, cell-based; details: dose 25-400 nM
[9] = biological target: Cyclin-dependent kinase 1 (Homo sapiens, UniProt P06493); experiment: Inhibition of CDK1 (unknown origin)
[10] = Half life in Sprague-Dawley rat at 10 mg/kg,po administration measured for 0.25 to 24 hrs by LC-MS/MS analysis; type: ADME, organism-based; details: in vivo, time 0.25-24 hrs
[11] = biological target: Aurora kinase B (Homo sapiens) (UniProt Q96GD4); experiment: Inhibition of human AurB at 100 nM by kinase profiling assay relative to control
[12] = Tmax in Sprague-Dawley rat at 10 mg/kg,po administration measured for 0.25 to 24 hrs by LC-MS/MS analysis; type: ADME, organism-based; details: in vivo, time 0.25-24 hrs
[13] = biological target: Serine/threonine-protein kinase SIK2 (Homo sapiens) (UniProt Q9H0K1); experiment: Inhibition of human QIK at 100 nM by kinase profiling assay relative to control
[14] = biological target: T1, CYP1A2 (Homo sapiens, UniProt P05177); experiment: Inhibition of CYP1A2 in human liver microsomes using alpha-naphthoflavone as […] at 10 uM preincubated for 10 mins followed by NADPH addition measured after 15 mins by LC-MS/MS analysis relative to control; type: ADME, Microsome; details: time 25 min
T1 sequence (P05177 whole entry): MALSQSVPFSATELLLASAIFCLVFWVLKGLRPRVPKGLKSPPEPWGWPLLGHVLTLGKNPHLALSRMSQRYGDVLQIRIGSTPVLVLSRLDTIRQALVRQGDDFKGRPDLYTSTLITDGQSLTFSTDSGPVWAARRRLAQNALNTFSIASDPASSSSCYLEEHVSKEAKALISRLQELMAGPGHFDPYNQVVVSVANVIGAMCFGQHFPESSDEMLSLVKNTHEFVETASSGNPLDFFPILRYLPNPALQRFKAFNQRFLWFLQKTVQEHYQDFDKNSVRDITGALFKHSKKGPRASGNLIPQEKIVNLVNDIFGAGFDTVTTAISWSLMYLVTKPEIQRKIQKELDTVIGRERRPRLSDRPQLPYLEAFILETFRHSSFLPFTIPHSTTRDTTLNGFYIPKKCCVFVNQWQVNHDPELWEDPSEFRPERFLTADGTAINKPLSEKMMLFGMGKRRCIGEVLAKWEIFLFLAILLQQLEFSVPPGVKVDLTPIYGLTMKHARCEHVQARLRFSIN

[15] = biological target: Rho-associated protein kinase 1 (Homo sapiens) (UniProt Q13464); experiment: Inhibition of human ROCK1 at 100 nM by kinase profiling assay relative to control
Sequence of Rho-associated protein kinase 1 (Homo sapiens) (Q13464 2-1354 limits assumed): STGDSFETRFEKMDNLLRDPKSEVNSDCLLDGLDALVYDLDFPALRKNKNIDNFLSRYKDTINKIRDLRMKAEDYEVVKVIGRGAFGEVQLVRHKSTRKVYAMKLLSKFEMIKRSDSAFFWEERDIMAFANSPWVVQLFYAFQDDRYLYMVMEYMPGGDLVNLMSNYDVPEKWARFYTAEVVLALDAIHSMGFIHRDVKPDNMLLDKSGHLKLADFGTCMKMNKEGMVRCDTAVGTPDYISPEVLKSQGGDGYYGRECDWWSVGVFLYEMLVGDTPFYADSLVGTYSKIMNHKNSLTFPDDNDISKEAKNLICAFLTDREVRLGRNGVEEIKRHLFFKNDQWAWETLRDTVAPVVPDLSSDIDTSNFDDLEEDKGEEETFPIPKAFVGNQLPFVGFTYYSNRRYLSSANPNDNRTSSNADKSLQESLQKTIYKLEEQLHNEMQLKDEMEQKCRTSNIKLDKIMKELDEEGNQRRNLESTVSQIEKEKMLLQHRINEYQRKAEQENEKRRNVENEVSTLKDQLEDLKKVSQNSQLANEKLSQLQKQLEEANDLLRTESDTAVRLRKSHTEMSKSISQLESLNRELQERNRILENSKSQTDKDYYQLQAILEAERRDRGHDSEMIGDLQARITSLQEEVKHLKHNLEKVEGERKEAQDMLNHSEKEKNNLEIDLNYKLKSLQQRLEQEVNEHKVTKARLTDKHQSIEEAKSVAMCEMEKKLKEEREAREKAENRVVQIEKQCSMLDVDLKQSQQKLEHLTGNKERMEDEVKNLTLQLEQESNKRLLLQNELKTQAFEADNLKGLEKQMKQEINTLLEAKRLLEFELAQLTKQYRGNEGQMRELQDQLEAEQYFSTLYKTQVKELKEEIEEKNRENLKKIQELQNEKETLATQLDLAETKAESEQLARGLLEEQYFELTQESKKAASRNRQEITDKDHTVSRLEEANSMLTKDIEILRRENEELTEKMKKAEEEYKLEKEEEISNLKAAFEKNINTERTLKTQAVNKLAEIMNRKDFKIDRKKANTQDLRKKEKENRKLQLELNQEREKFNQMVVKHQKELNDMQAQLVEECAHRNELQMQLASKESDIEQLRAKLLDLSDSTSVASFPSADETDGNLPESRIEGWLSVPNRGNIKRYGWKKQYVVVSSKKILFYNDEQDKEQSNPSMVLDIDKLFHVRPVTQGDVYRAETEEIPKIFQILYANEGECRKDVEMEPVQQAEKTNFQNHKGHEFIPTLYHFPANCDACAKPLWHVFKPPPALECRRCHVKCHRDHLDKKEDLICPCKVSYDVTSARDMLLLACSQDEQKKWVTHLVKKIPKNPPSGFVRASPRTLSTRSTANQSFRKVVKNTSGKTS

Sequence of Cyclin-dependent kinase 1 (P06493 whole entry): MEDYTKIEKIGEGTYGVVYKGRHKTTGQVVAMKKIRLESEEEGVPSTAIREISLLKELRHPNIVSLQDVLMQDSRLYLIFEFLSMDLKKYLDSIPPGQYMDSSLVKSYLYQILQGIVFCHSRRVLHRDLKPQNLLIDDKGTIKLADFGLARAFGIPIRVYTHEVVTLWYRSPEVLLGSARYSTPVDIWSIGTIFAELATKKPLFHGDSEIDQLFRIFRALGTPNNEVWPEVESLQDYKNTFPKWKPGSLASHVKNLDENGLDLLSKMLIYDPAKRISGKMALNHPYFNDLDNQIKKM
Sequence of Aurora kinase B (Homo sapiens) (Q96GD4 whole entry): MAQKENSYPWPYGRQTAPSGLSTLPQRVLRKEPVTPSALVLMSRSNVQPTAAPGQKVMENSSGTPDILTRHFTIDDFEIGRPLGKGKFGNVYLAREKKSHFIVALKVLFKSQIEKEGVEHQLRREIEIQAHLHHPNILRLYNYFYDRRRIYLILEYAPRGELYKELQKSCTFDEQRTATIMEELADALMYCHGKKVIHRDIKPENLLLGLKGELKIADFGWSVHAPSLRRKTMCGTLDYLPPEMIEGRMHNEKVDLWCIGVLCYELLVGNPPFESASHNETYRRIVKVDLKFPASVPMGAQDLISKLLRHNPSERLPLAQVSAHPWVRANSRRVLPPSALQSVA
Sequence of Serine/threonine-protein kinase SIK2 (Homo sapiens) (Q9H0K1 whole entry, looked up): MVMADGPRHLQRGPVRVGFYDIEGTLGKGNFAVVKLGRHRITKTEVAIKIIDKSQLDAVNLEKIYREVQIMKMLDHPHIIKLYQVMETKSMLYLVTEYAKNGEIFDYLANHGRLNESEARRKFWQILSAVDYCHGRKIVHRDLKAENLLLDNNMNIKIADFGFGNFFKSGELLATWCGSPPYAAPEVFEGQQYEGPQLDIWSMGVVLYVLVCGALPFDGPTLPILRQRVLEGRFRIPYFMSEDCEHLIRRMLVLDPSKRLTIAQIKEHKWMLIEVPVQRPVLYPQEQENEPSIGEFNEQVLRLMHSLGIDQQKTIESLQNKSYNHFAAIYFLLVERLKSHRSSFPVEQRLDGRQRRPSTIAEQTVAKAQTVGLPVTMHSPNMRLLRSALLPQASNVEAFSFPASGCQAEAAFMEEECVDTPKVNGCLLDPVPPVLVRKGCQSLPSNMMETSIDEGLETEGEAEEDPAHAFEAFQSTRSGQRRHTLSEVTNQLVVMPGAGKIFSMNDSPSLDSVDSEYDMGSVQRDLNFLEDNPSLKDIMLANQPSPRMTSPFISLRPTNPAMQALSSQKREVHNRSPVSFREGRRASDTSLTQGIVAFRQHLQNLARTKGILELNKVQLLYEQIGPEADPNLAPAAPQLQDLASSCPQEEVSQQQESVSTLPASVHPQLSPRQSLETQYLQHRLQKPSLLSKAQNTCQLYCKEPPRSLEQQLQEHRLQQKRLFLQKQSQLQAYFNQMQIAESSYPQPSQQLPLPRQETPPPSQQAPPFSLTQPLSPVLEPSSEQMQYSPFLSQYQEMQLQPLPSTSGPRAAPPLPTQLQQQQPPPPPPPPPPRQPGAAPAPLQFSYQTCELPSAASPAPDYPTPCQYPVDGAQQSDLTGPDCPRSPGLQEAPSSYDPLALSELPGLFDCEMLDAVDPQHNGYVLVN
Sequence of TGF-beta receptor type-2 (Homo sapiens) (P37173 whole entry): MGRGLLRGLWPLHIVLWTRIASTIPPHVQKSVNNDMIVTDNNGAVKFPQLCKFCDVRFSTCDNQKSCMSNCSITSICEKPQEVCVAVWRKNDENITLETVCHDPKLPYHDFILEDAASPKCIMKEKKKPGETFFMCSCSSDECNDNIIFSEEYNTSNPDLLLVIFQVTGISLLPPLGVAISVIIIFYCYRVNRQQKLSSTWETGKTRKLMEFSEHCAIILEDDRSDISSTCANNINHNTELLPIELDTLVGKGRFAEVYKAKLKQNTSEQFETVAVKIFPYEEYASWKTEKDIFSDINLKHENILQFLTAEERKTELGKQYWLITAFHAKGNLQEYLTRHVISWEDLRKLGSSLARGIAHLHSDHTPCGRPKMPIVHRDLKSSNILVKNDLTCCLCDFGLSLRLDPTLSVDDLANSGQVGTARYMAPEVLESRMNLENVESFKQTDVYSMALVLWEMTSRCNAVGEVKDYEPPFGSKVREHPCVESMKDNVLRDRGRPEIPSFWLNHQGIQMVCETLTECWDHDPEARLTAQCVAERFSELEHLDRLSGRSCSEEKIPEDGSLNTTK

Vd [1]: 13.4 L/kg
CLH [3]: 49.6 µL/min/mg
GI50 [5]: 0.05 µM
inhibition [6]: < 50%
AUC(0-inf) [7]: 0.199 µg·h/mL
IC50 [9]: 0.439 µM
half-life [10]: 5.28 h
inhibition [11]: < 50%
Tmax [12]: 0.5 h
inhibition [13]: < 50%
inhibition at 0.25 h, 10 µM [14]: 34.6%
inhibition [15]: < 50%
SMILES: CC(C)n1nnc2ccc(-c3ccnc(Nc4cc(C(=O)N5CCCN(C)CC5)ccn4)c3)cc21
Activity [2]: Active
Activity [4]: Non-Toxic
Activity [8]: Active
